From patent US9744137B2, “Topiramate compositions and methods of enhancing its bioavailability” (Supernus Pharmaceuticals, Inc., priority 2006, dated 2017)
Where two headings read alike, the source gives them in different places.

Experiments:
[1] = cited from earlier work
patients with epilepsy = details: cited from earlier work; for time leading up to the first seizure (median seizure-free duration): monotherapy
[2] = cited from earlier work; remark: listed apart in the source
[3] = Degradation of topiramate in 0.1 N HCl (simulated gastric fluid) at 37° C., HPLC-ELSD; type: physicochemical; details: drug substance, 24 hours of incubation in 0.1 N HCl at 37° C.
Description: Degradation of topiramate was detected during a dissolution profile of Topamax® tablets in simulated gastric fluid (i.e., 0.1 N HCl). […] Topiramate analysis was carried out using HPLC equipped with Evaporative Laser Light Scattering Detector at 92° C. Separation was achieved using a C-8 reversed-phase column under isocratic conditions of 50% acetonitrile in water. The samples were kept at 4° C. throughout the analysis. Prior to sample injection, the system was equilibrated for 1 hr and subjected to a system suitability test. Linearity was evaluated by linearity curve with power fit. The samples were injected in duplicate and degradation was calculated using the sample area linearity slope and power.

topiramate degraded [3]: approximately 70%
SMILES: CC1(C)OC2[C@@H](CO[C@@]3(COS(N)(=O)=O)OC(C)(C)O[C@@H]23)O1 (stereo partly drawn) [topiramate, 2,3:4,5-Di-O-isopropylidene-beta-D-fructopyranose sulfamate]
plasma levels at steady state ([1]; migraine prophylaxis): 1200 to 4400 ng/mL
mean serum level ([1]; pediatric migraine study, daily dose 84.0+/−38.6 mg/day): 2800 ± 1600 ng/mL
plasma topiramate concentration (patients with epilepsy; 9 patients who became seizure-free): 5.3 ± 2.6 µg/mL
time leading up to the first seizure (median seizure-free duration) (patients with epilepsy; 215 patients with partial epilepsy, serum concentrations <1.8 mg/L): 84 days
time leading up to the first seizure (median seizure-free duration) (patients with epilepsy; serum concentrations above 9.9 mg/L): 451 days
time leading up to the first seizure (median seizure-free duration) (patients with epilepsy; serum concentrations between 1.8 and 9.9 mg/L): 194 days
mean topiramate plasma concentration (patients with epilepsy; positive responders): around 7 μg/mL
mean topiramate plasma concentration (patients with epilepsy; seizure-free patients): ~9 µg/mL
effect of food on pharmacokinetics ([2]; in vivo): not significantly affected by food
mean elimination half life ([2]; in vivo): about 21 hours
time to peak plasma drug concentrations ([2]; oral administration of an immediate release dosage form): approximately 2 hours
